# Assay results from patent US9539323B2, “Methods and compositions for malic enzyme 2 (ME2) as a target for cancer therapy” (Beth Israel Deaconess Medical Center, Inc., priority 2010, dated 2017).
# Tests used:
# Assay type in all cases: cell-based, human
# K562 cells [1] = assay: Erythroid differentiation assay (glycophorin A, CD10, benzidine hemoglobin staining); settings: for rescue of differentiation mediated by ME2 depletion: supplementation
# Protocol: Erythroid differentiation assay: Induction of surface expression of the erythroid marker glycophorin A and CD10 was determined by indirect immunofluorescence and flow cytometry, as described previously by Hatzivassiliou et al., in Cancer Cell. 8: 311-321 (2005). In brief, K562 cells with or without ME2 knockdown were stained with a mouse FITC-conjugated anti-glycophorin A or CD10 antibody (Dako) at 1:100 dilution in medium plus 10% FCS for 30 min at 4° C. Control cells were stained with FITC-conjugated IgG. Cells expressing hemoglobin were determined by benzidine staining, as previously described by Park et al., in Cell Growth Differ. 12: 481-486 (2001). The benzidine dihydrochloride stock solution contained 0.2% w/v benzidine hydrochloride in 3% acetic acid. Cells (1×10^5) were washed twice in ice-cold PBS. The cell pellets were resuspended in ice-clod PBS. Before staining, 5 μl of 30% H2O2 was added to 1 ml of a stock solution of benzidine solution. The cell suspensions were mixed with the benzidine solution in a 1:1 ratio and counted in a hemocytometer after 30 min. Blue cells were considered to be positive for hemoglobin. The proportion of blue-stained cells was quantified under light microscopy. A total of 500 cells were counted for each sample in triplicate. Shown is the mean±SD of a representative experiment.
# K562 cells [2] = assay: Proliferation assay (Coulter counter); settings: for rescue of ME2 knockdown cell cycle phenotype (decreased proliferation): supplementation
# Protocol: Proliferation assay: Control and ME2 deficient cell lines were plated in 6-well plate at a density of 1×10^5 cells/well and maintained at 37° C. in a 5% CO2 incubator. After 24, 72, 120 and 168 hours of initial plating, 0.5 ml cells were diluted into 10 ml of Hanks' buffer and counted by Coulter counter.
# [3] = tested on: phospho-ERK1/2, phospho-AKT, GATA-1, vimentin; assay: Western blot of signaling pathways, GATA-1 and vimentin in K562 cells; settings: K562, 10 μM
# Protocol: K562 cells with or without ME2 knockdown were lysed with RIPA lysis buffer (50 mM Tris-HCl, pH 8.0, 150 mM NaCl, 1% Triton X-100, 1 mM EGTA) containing 1 mM PMSF and a protease inhibitor cocktail and subjected to centrifugation at 15,000×g for […] at 4° C. to remove debris. After lysis, equal aliquots of protein lysate were resolved by Western blotting. Western blots were probed with anti-phospho-ERK1/2, anti-ERK1, anti-p-AKT308, anti-AKT472, anti-AKT1/2, anti-GATA-1, anti-vimentin, and anti-β-tubulin. A: Phospho-ERK1/2 activity in ME2 knockdown K562 cells. B: Phospho-AKT detection in ME2 knockdown K562 cells. C: 10 μM PI3K inhibitor, LY294002, inhibits p-AKT activity. D: LY294002 rescue of differentiation in ME2 knockdown K562 cells. E: The effect of LY294002 on the proliferation of K562 cells with (third to sixth bars in graph) or without ME2 (first to second bars in graph) knockdown. F: The expression difference of GATA-1 and vimentin in ME2 knockdown cells. Data are representative of three independent experiments. […] Membranes were washed in PBS plus 0.1% Tween 20 and probed with anti-rabbit or anti-mouse HRP-conjugated secondary antibody (both at 1:10,000 dilution), and proteins were detected using the ECL Plus chemiluminescence detection reagent (Amersham Biosciences).
# K562 cells [4] = assay: Cell death assessed by flow cytometry; settings: 72 h
# Protocol: A: Cells were treated with different concentrations of amino-oxyacetate and expression levels of the erythroid marker glycophorin A (GPA) on the surface of K562 cells were assessed using a mouse FITC-conjugated anti-human glycophorin A antibody. Each histogram is representative of three experiments. B: K562 cells with or without ME2 knockdown were incubated with different concentrations of AOA for 72 h. Cell death was assessed by flow cytometry. Top: pLKO; Bottom: shME2-3. […] C: Cells were treated with different concentrations of malate and expression levels of the erythroid marker glycophorin A on the surface of K562 cells were assessed using a mouse FITC-conjugated anti-human glycophorin A antibody. Each histogram is representative of three experiments.
# K562 cells with or without ME2 knockdown were incubated with 0.1 mM AOA plus 2 mM α-KG for 48 h. Cell death was assessed by flow cytometry. A: pLKO K562 cells without any treatment. B: pLKO K562 cells treated with 0.1 mM AOA for 48 h. C: pLKO K562 cells treated with 0.1 mM AOA combined with 2 mM α-KG.
# K562 cells [5] = assay: Determination of cellular reactive oxygen species (CM-H2DCF-DA, MitoSOX); settings: ME2 knockdown K562 cells, 5.0 mM
# Protocol: Determination of cellular reactive oxygen species (ROS): Intracellular ROS production was measured by staining with CM-H2DCFDA. CM-H2DCFDA is a cell-permeant indicator for ROS that is nonfluorescent until removal of the acetate groups by intracellular esterases and oxidation occurs within the cell. The procedure for measuring ROS was carried out as described in Trachootham et al., in Cancer Cell. 10: 241-252 (2006), with minor modifications. Briefly, K562 cells transduced with shRNA lentiviral particles or control vector were selected with puromycin for 2 weeks, […], followed by flow cytometry using a FACSCalibur equipped with CellQuest Pro software. Superoxide radicals (O2^−) were measured separately using the MitoSOX™ reagent according to the manufacturer's protocol (Invitrogen). In brief, cells with or without ME2 knockdown were incubated with 5 μM MitoSOX™ reagent for 10 minutes at 37° C., then washed three times and observed under a fluorescence microscope using the Rhodamine filter and Axiovision software for capturing images (Zeiss, Germany).
structure (smiles),measurement,setting,value
"O=c1cc(N2CCOCC2)oc2c(-c3ccccc3)cccc12 [LY294002, 2-morpholin-4-yl-8-phenylchromen-4-one]",differentiation mediated by ME2 silencing,"K562 cells [1]; ME2 knockdown K562 cells, 10 μM",rescues the differentiation
same,rescue of proliferation inhibition,K562 cells [2]; ME2 knockdown K562 cells,does not rescue proliferation inhibition in ME2 knockdown cells as effectively
same,sensitivity of proliferation inhibition to LY294002,K562 cells [2]; ME2 knockdown vs parental K562 cells,more sensitive
same,p-AKT activity,[3],significantly inhibit p-AKT activity
"NOCC(=O)O [AOA, amino-oxyacetate]",erythroid differentiation (glycophorin staining),"K562 cells [1]; K562, 0.2 to 0.8 mM in medium",could not induce erythroid differentiation
same,cell death,K562 cells [4]; K562 with ME2 silenced (shME2-3),induced leukemia cell death (mainly apoptotic)
same,cell death,K562 cells [4]; wild type K562 (pLKO),induced leukemia cell death (mainly necrotic)
Nc1ccn([C@@H]2O[C@H](CO)[C@@H](O)[C@H]2O)c(=O)n1 [cytidine],rescue of differentiation mediated by ME2 depletion,K562 cells [1]; ME2 knockdown K562 cells,could not rescue the differentiation
same,rescue of ME2 knockdown cell cycle phenotype (decreased proliferation),K562 cells [2]; ME2 knockdown K562 cells,nor were we able to rescue
O=c1ccn([C@@H]2O[C@H](CO)[C@@H](O)[C@H]2O)c(=O)[nH]1 [uridine],rescue of differentiation mediated by ME2 depletion,K562 cells [1]; ME2 knockdown K562 cells,could not rescue the differentiation
same,rescue of ME2 knockdown cell cycle phenotype (decreased proliferation),K562 cells [2]; ME2 knockdown K562 cells,nor were we able to rescue
O=C(O)CC(O)C(=O)O (centres unmarked) [malate],erythroid differentiation,"K562 cells [1]; wild type K562, 0.1 to 10 mM in medium",could not induce erythroid differentiation
"CC(=O)N[C@@H](CS)C(=O)O [NAC, N-acetyl cysteine]",endogenous ROS,K562 cells [5],completely inhibited
same,differentiation induced by ME2 depletion,"K562 cells [1]; ME2 knockdown K562 cells, 5.0 mM",without affecting differentiation
